This passage reports IC50, GI50 and fraction unbound results from patent US11945812B2, “Annulated 2-amino-3-cyano thiophenes and derivatives for the treatment of cancer” (Boehringer Ingelheim International GmbH, priority 2020, dated 2024).

Usually IC50 stands for the point on the concentration scale where inhibition reaches its midpoint.

The subject of the first series is NCI-H358 cells. The series can be described thus: NCI-H358 CTG proliferation assay (120 h) (NSCLC). It is filed as cell-based. The note with it: Homo sapiens, read-out: IC50 NCl-H358. The procedure: NCI-H358 CTG Proliferation Assay (120 h) (NSCLC)
NCI-H358 cells (ATCC No. CRL-5807) were dispensed into white bottom opaque 96 well plates (Perkin Elmer cat no. 5680) at a density of 2000 cells per well in 100 μL RPMI-1640 ATCC-Formulation (Gibco # A10491)+10% FCS. Cells were incubated overnight at 37° C. in a humidified tissue culture incubator at 5% CO2. Compounds (10 mM stock in DMSO) were added at logarithmic dose series using the HP Digital Dispenser D300 (Tecan), normalizing for added DMSO. For the TO time point measurement, untreated cells were analyzed at the time of compound addition. Plates were incubated for 120 hours, and cell viability was measured using CellTiter-Glo luminescent cell viability reagent (Promega product code G7570). Viability (stated as percent of control) is defined as relative luminescence units RLU of each well divided by the RLU of cells in DMSO controls. IC50 values were determined from viability measurements by non-linear regression using a four parameter model.
Consider `COC/C=C/C(=O)N1CCN(c2cc(O[C@@H](C)[C@@H]3CCCN3C)nc(-c3cc([C@@]4(C)CCCc5sc(N)c(C#N)c54)on3)n2)[C@H](C)C1` [Ib-14], for which the IC50 turned out to be 19.1 nM.

For the compound `C=CC(=O)N1CCN(c2cc(O[C@@H](C)[C@@H]3CCCN3C)nc(-c3cc([C@@]4(C)CCCc5sc(N)c(C#N)c54)no3)n2)CC12CC2` [Ic-3], the IC50 was 24.3 nM.

Regarding `C=CC(=O)N1[C@@H](C)CN(c2cc(O[C@@H](C)[C@@H]3CCCN3C)nc(-c3cc([C@@]4(C)CCCc5sc(N)c(C#N)c54)no3)n2)C[C@@H]1C` [Ic-4], the IC50 amounted to 2.49 nM.

In a further series the target is Ba/F3 cells bearing a KRAS G12C mutation (Homo sapiens, UniProt P01116, G12C, cells depend on it). The experiment in a line: Ba/F3 cell model proliferation assay (AlamarBlue, 72 h). The note with it: Ba/F3 KRAS G12C cells, 72 h, 10% FCS, uncorrected; read-out: IC50 Ba/F3 KRASG12C. It counts as cell-based. The protocol: Ba/F3 Cell Model Generation and Proliferation Assay
Sequence of Ba/F3 cells bearing a KRAS G12C mutation (P01116 whole entry G12C, canonical isoform): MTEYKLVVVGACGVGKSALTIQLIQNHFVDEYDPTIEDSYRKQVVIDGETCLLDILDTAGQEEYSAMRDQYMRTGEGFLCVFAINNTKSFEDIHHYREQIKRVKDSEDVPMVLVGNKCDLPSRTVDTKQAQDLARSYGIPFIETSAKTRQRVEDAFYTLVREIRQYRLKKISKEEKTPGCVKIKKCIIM
Plasmids containing KRASG12 mutants were obtained from GeneScript. To generate KRASG12-dependent Ba/F3 models, Ba/F3 cells were transduced with retroviruses containing vectors that harbor KRASG12 isoforms. Platinum-E cells (Cell Biolabs) were used for retrovirus packaging. Retrovirus was added to Ba/F3 cells. To ensure infection, 4 μg/mL polybrene was added and cells were spinfected. […] Cells with an infection efficiency of 10% to 20% were further cultivated and puromycin selection with 1 μg/mL was initiated. As a control, parental Ba/F3 cells were used to show selection status. Selection was considered successful when parental Ba/F3 cells cultures died. To evaluate the transforming potential of KRASG12 mutations, the growth medium was no longer supplemented with IL-3. Ba/F3 cells harboring the empty vector were used as a control. Approximately ten days before conducting the experiments, puromycin was left out.
All treatments were performed in technical duplicates. The assay is run using a fully automated robotic system. Treated cells were incubated for 72 h at 37° C. with 5% CO2. AlamarBlue™ (ThermoFisher), a viability stain, was added and fluorescence measured in the PerkinElmer Envision HTS Multilabel Reader.
(Resazurin is reduced to fluorescent resorufin, in cell work by metabolically active cells.)
Turning to `COC/C=C/C(=O)N1CCN(c2cc(O[C@@H](C)[C@@H]3CCCN3C)nc(-c3cc([C@@]4(C)CCCc5sc(N)c(C#N)c54)on3)n2)[C@H](C)C1` [Ib-14], the GI50 is 16 nM.

On to `C=CC(=O)N1CCN(c2cc(O[C@@H](C)[C@@H]3CCCN3C)nc(-c3cc([C@@]4(C)CCCc5sc(N)c(C#N)c54)no3)n2)CC12CC2` [Ic-3], for which the GI50 stood at 5.5 nM.

`C=CC(=O)N1[C@@H](C)CN(c2cc(O[C@@H](C)[C@@H]3CCCN3C)nc(-c3cc([C@@]4(C)CCCc5sc(N)c(C#N)c54)no3)n2)C[C@@H]1C` [Ic-4]: the GI50 is 1.8 nM.

The series is the same for the next values; noted with them: corrected by plasma protein binding in 10% FCS (fraction unbound); read-out: IC50 Ba/F3 KRASG12C (corrected).
Take `COC/C=C/C(=O)N1CCN(c2cc(O[C@@H](C)[C@@H]3CCCN3C)nc(-c3cc([C@@]4(C)CCCc5sc(N)c(C#N)c54)on3)n2)[C@H](C)C1` [Ib-14]: the GI50 is 1.06 nM.

Turning to `C=CC(=O)N1CCN(c2cc(O[C@@H](C)[C@@H]3CCCN3C)nc(-c3cc([C@@]4(C)CCCc5sc(N)c(C#N)c54)no3)n2)CC12CC2` [Ic-3], the GI50 is 0.6 nM.

As for `C=CC(=O)N1[C@@H](C)CN(c2cc(O[C@@H](C)[C@@H]3CCCN3C)nc(-c3cc([C@@]4(C)CCCc5sc(N)c(C#N)c54)no3)n2)C[C@@H]1C` [Ic-4], the GI50 stood at 0.15 nM.

The next series concerns MiaPaCa-2 cells. The series can be described thus: MiaPaCa-2 CTG proliferation assay (pancreatic cancer). The note with it: Homo sapiens, MIA PaCa-2, 120 h; MiaPaCa-2 CTG proliferation, 5 days; read-out: IC50 MiaPACA2. It counts as cell-based. The procedure: MiaPaCa-2 CTG Proliferation Assay (Pancreatic Cancer)
MiaPaCa-2 cells (ATCC® CRM-CRL-1420™) were grown in cell culture flasks (175 cm^2) using DMEM medium supplemented with 10% fetal bovine serum. […] Materials used for the assay were CulturPlate-384, White Opaque 384-well microplate, Sterile and Tissue Culture Treated (Perkin Elmer #6007680), DMEM medium and FBS # SH30071.03 (HyClone).
(§1) The proliferation assays started (day1) with seeding cells in flat bottom 384 well microtiter plates in 90 μL DMEM medium supplemented with 10% FBS at a density of 500 cells/well. Any other luminescence compatible plate format is possible. On day 2, 10 μL dilutions of the test compounds covering a concentration range between app. 0, 1 and 10.000 nM were added to the cells. Cells were incubated for 5 days in a humidified, incubator with 5% CO2 at 37° C. On day 7 100 μl of Cell Titer Glow reagent (Cell titer Glo Luminescent Cat. No. G7571, Promega) were added to each well and incubated for additional 10 min at room temperature (with agitation). Luminescence was measured on a Wallac Victor using standard luminescence read out. IC50 values were calculated using standard Levenburg Marquard algorithms (GraphPad Prism).
In the case of `COC/C=C/C(=O)N1CCN(c2cc(O[C@@H](C)[C@@H]3CCCN3C)nc(-c3cc([C@@]4(C)CCCc5sc(N)c(C#N)c54)on3)n2)[C@H](C)C1` [Ib-14], the IC50 was found to be 36 nM.

Consider `C=CC(=O)N1CCN(c2cc(O[C@@H](C)[C@@H]3CCCN3C)nc(-c3cc([C@@]4(C)CCCc5sc(N)c(C#N)c54)no3)n2)CC12CC2` [Ic-3], for which the 50% inhibitory concentration (IC50) turned out to be 123 nM.

Take `C=CC(=O)N1[C@@H](C)CN(c2cc(O[C@@H](C)[C@@H]3CCCN3C)nc(-c3cc([C@@]4(C)CCCc5sc(N)c(C#N)c54)no3)n2)C[C@@H]1C` [Ic-4]: the IC50 stood at 6.87 nM.

Tested on in the next series: not listed separately
The experiment in a line: Plasma protein binding (equilibrium dialysis), human plasma. It counts as in vitro ADME. The note with it: read-out: PPB human fu. The protocol:
Plasma Protein Binding (PPB)
Binding of test compound to plasma was determined using equilibrium dialysis (ED) and quantitative mass spectrometry interfaced with liquid chromatography (LC-MS). In brief, ED was performed with dialysis devices consisting of two chambers separated by a semipermeable membrane with a molecular weight cut-off of 5-10 kg/mol. One chamber was filled with commercially sourced plasma (mouse and human plasma, respectively) or serum (10% FCS in PBS) containing 1-10 μmol/L test compound and the other chamber was filled with phosphate-buffer saline (PBS) with or without dextran. The dialysis chamber was incubated for 3-5 hours at 37° C. After incubation, protein was precipitated from aliquots of each chamber and the concentration of test compound in the supernatant of the plasma-containing compartment (cplasma) and of the buffer-containing compartment (Cbuffer) was determined by LC-MS. The fraction of unbound test compound (not bound to plasma) (fu) was calculated according to the following equation: […]
A general note: In equilibrium dialysis free small molecules cross a membrane that holds back macromolecules.
With `COC/C=C/C(=O)N1CCN(c2cc(O[C@@H](C)[C@@H]3CCCN3C)nc(-c3cc([C@@]4(C)CCCc5sc(N)c(C#N)c54)on3)n2)[C@H](C)C1` [Ib-14], the fraction unbound worked out at 0.016.

For `C=CC(=O)N1CCN(c2cc(O[C@@H](C)[C@@H]3CCCN3C)nc(-c3cc([C@@]4(C)CCCc5sc(N)c(C#N)c54)no3)n2)CC12CC2` [Ic-3], the fraction unbound turned out to be 0.028.

In the case of `C=CC(=O)N1[C@@H](C)CN(c2cc(O[C@@H](C)[C@@H]3CCCN3C)nc(-c3cc([C@@]4(C)CCCc5sc(N)c(C#N)c54)no3)n2)C[C@@H]1C` [Ic-4], the fraction unbound worked out at 0.027.

The next series concerns SW837 cells. The experiment in a line: SW837 CTG proliferation assay (CRC). The note with it: Homo sapiens; SW837 CTG proliferation; read-out: IC50 SW837. It is filed as cell-based. The procedure: SW837 CTG Proliferation Assay (CRC)
SW837 cells (ATCC #CCL-235) were grown in cell culture flasks (175 cm^2) using L-15 10% FCS, 1% L-Glu, 1×NEAA and 1×Na-Pyrovat. Cultures were incubated at 37° C. and 0% CO2 in a humidified atmosphere, with medium change or subcultivation 2-3 times a week. Materials used for the assay were CulturPlate-384, White Opaque 384-well Microplate, Sterile and Tissue Culture Treated (Perkin Elmer #6007680), Leibovitz L15 Medium and FBS # SH30071.03 (HyClone).
as §1, with “L-15” for “DMEM medium supplemented with”, “FCS, 1% L-Glu, 1×NEAA and 1× Na-Pyrovat” for “FBS”, “humidified, CO2 controlled (no CO2)” for “humidified,”, “incubator” for “incubator with 5% CO2”, “μL” for “μl”
As for `COC/C=C/C(=O)N1CCN(c2cc(O[C@@H](C)[C@@H]3CCCN3C)nc(-c3cc([C@@]4(C)CCCc5sc(N)c(C#N)c54)on3)n2)[C@H](C)C1` [Ib-14], the IC50 turned out to be 11.3 nM.

For the compound `C=CC(=O)N1CCN(c2cc(O[C@@H](C)[C@@H]3CCCN3C)nc(-c3cc([C@@]4(C)CCCc5sc(N)c(C#N)c54)no3)n2)CC12CC2` [Ic-3], the IC50 worked out at 10.6 nM.

Regarding `C=CC(=O)N1[C@@H](C)CN(c2cc(O[C@@H](C)[C@@H]3CCCN3C)nc(-c3cc([C@@]4(C)CCCc5sc(N)c(C#N)c54)no3)n2)C[C@@H]1C` [Ic-4], the IC50 stood at 1.62 nM.

The test system of the next series is ERK phosphorylation in NCI-H358_Cas9_SOS2. The experiment in a line: ERK phosphorylation assay 2 (AlphaLISA SureFire Ultra p-ERK1/2), SOS2 knock-out. It is filed as cell-based. The note with it: Homo sapiens, NCI-H358; assay 2 (marked with *); read-out: IC50 H358 pERK. From the text:
ERK Phosphorylation Assay
Materials Used for the Assay;
A general note: In Alpha technology, singlet oxygen from a donor bead excites a nearby acceptor bead.
With `COC/C=C/C(=O)N1CCN(c2cc(O[C@@H](C)[C@@H]3CCCN3C)nc(-c3cc([C@@]4(C)CCCc5sc(N)c(C#N)c54)on3)n2)[C@H](C)C1` [Ib-14], the IC50 worked out at 12.6 nM.

As to `C=CC(=O)N1CCN(c2cc(O[C@@H](C)[C@@H]3CCCN3C)nc(-c3cc([C@@]4(C)CCCc5sc(N)c(C#N)c54)no3)n2)CC12CC2` [Ic-3], the IC50 came out at 12.3 nM.

In the case of `C=CC(=O)N1[C@@H](C)CN(c2cc(O[C@@H](C)[C@@H]3CCCN3C)nc(-c3cc([C@@]4(C)CCCc5sc(N)c(C#N)c54)no3)n2)C[C@@H]1C` [Ic-4], the IC50 came out at 3.4 nM.
